Assay results as given in the NIST ThermoML archive (doi:10.1016/j.tca.2008.09.010).
Numbers after ± are expanded uncertainties.

How the values were obtained:
[1] = Crystal; DTA
[2] = Molar enthalpy of transition or fusion; conditions: Crystal; DSC

| Compound | Normal melting temperature [1] [°C] | Molar enthalpy of transition or fusion [2] [kcal/mol] |
| --- | --- | --- |
| Clc1ccccc1Cl [1,2-dichlorobenzene] | -17.30 ± 0.5 | 3.13 ± 0.0789 |
| Clc1cccc(Cl)c1 [1,3-dichlorobenzene] | -24.90 ± 0.5 | 2.99 ± 0.0765 |
| Clc1ccc(Cl)cc1 [1,4-dichlorobenzene] | 53.00 ± 0.5 | 4.32 ± 0.103 |
| c1ccc2c(c1)ccc1ccccc12 [phenanthrene] | 98.90 ± 0.5 | 3.99 ± 0.0956 |
